The values below come from patent publication US7582652B2, “Kinase inhibitors” (Eli Lilly and Company, priority 2004, dated 2009).

SMILES strings stand for the structures.

In assay [1] the test system is collagen induced arthritis (ankle diameter). As to the kind of experiment: Rat collagen induced arthritis efficacy model. It counts as in vivo, female Lewis rats. As to conditions: PO bid x 14 days, AUC of composite inflammation scores. On the procedure:
Rat Collagen Induced Arthritis Efficacy Model
Female Lewis rats (≅190 g, Charles River Labs) are immunized with Bovine type II collagen (2 mg/mL) emulsified with an equal volume of adjuvant (aluminum hydroxide). […]. The rats are immunized with approximately […] of the emulsion intradermally on the back near the base of the tail. All animals are re-immunized 7 days later according to the same protocol. The rats begin to develop arthritis (characterized by swelling and redness of one or both ankles) from 12 to 14 days after the first immunization. The rats are equally distributed into five treatment groups at the first signs of arthritis and treatment is initiated with each rat dosed bid for 14 days.
Ankle diameter is measured with calipers 5 days a week and recorded. Data is expressed as the area under the curve (AUC) generated from the composite inflammation scores and statistical analysis performed.

The subject of assay [2] is TNF-α synthesis in synovial lavage fluid. As to the kind of experiment: Effect on intra-articular LPS induced TNF-α. Type of assay: in vivo, female Lewis rats. On the procedure: Effect on Intra-articular LPS Induced TNF-α
Intra-articular injection of LPS into rat ankles induces the synthesis of TNF-α, which can be measured in synovial lavage fluid. High levels of TNF-α are detectable within 2 hours. Since the joint is the site where arthritis develops, this model can rapidly determine whether an orally administered compound has an effect on an inflammatory response in the synovium.
Six female Lewis rats (150-200 g) are place in each treatment group. The animals are given vehicle (1% NaCarboxymethylcellulose-0.25% Tween 80) or test compound (1 mg/kg, 3 mg/kg, 10 mg/kg, and 30 mg/kg) orally. One hour later, 10 μl LPS (10 μg) is administered intra-articularly into the right ankle of each rat, while the left ankle receives 10 μL of saline. After two hours, each ankle is lavaged with 100 μL of saline. The lavage is collected and stored at −80° C. • Group#1: Vehicle (1% NaCMC-0.25% Tween 80, 1 mL, PO) • Group#2: Test compound (1 mg/kg, 1 mL, PO) • Group#3: Test compound (3 mg/kg, 1 mL, PO) • Group#4: Test compound (10 mg/kg, 1 mL, PO) • Group#5: Test compound (30 mg/kg, 1 mL, PO)
TNF-α is measured with a commercially available ELISA kit (R&D, RTA00).

For assay [3], the system named is MAPKAP-K2 phosphorylation in B16F10 melanoma tumors. As to the kind of experiment: B16F10 melanoma target (MAPKAP-K2 phosphorylation). It counts as in vivo, C57B16 mice. The conditions noted are these: p.o., B16F10 tumors in mice, MAPKAP-K2 phosphorylation by immuno-blot. On the procedure:
B16F10 Melanoma Target (MAPKAP-K2 Phosphorylation)
The B16F10 melanoma cell line is obtained from the American Type Culture Collection, Rockville, Md. The cells are cultured in RPMI-1640 medium supplemented with 10% fetal calf serum. The cells grown in vitro are harvested during their exponential growth phase by gentle trypsinization, washed twice in medium, and resuspended in serum-free RPMI-1640 medium. The number of viable cells is determined using a hemocytometer and adjusted to 1×10^7/mL. Tumor cells are injected subcutaneously in normal C57B16 mice. Inoculum volume per mouse is 0.2 mL (2,000,000 cells). When the tumors reach 300-500 mg, the mice are used for target inhibition studies at either a fixed time (2.5 hours) after p.o. compound treatment or pharmacodynamic studies where the tumors are collected at multiple time-points (e.g., 3, 6, 9, 12, 15, and 18 h) after p.o. compound treatment.
Protein Extraction and Immuno-Blot Analysis
Tumors collected as described above are immediately snap-frozen in liquid nitrogen and stored at −80° C. […] The supernatant is transferred to fresh prechilled microfuge tubes and protein concentrations are measured using Bio-Rad protein assay reagents using bovine serum albumin as protein standard.
Protein extracts are equalized with the extraction buffer. […] Protein bands of interest are quantified from films using Kodak Image Station 1000.

In the case of `CC(C)(C)Cn1c(N)nc2ccc(-c3nc(C(C)(C)C)[nH]c3-c3ccc(F)cc3)nc21.CS(=O)(=O)O.CS(=O)(=O)O` [EXAMPLE 104, Crystalline 5-[2-tert-Butyl-5-(4-fluoro-phenyl)-1H-imidazol-4-yl]-3-(2,2-dimethyl-propyl)-3H-imidazo[4,5-b]pyridin-2-ylamine dimethanesulfonate], the values for the TMED50 in assay [1] and in assay [3] were 1.5 mg/kg (b.i.d.) and 3.59 mg/kg, respectively. Further, the “inhibition of TNF-α synthesis (in words)” value in assay [2] (oral 1, 3, 10, 30 mg/kg) is “dose-dependent inhibition”. Further, the “TMED50 (inhibition of TNF-α synthesis)” value in assay [2] (oral, LPS intra-articular 1 h later, ankle lavage after 2 h) is reported as 0.54 mg/kg.
